# Experimental data: patent publication US10457672B2, “γ-diketones as Wnt/β-catenin signaling pathway activators” (Samumed, LLC, priority 2013, dated 2019)
# System: Wnt/β-catenin signaling pathway (Wnt-responsive SP5 promoter luciferase reporter in SW480 cells)
# Assay: Wnt reporter (SP5 promoter-firefly luciferase) activation assay in SW480 cells
# Format: cell-based
# Conditions: Homo sapiens; SW480 colon cancer cells with SP5 promoter luciferase reporter; 24 h after compound addition; normalized to DMSO; concentration at half maximal activation
# Description: Compounds that enhance the Wnt activity, or Activators, were assayed as follows. Reporter cell lines were generated by stably transducing cells of colon cancer cell lines (with a lentiviral construct that included a Wnt-responsive promoter driving expression of the firefly luciferase gene).
# Lentiviral constructs were made in which the SP5 promoter, a promoter having eight TCF/LEF binding sites derived from the SP5 promoter, was linked upstream of the firefly luciferase gene. The lentiviral constructs also included a hygromycin resistance gene as a selectable marker. The SP5 promoter construct was used to transduce SW480 cells, a colon cancer cell line having a mutated APC gene that generates a truncated APC protein, leading to de-regulated accumulation of β-catenin.
# Cultured SW480 cells bearing a reporter construct were distributed at approximately 10,000 cells per well into 384- or 96-well multiwell plates. Compounds from a small molecule compound library were then added to the wells in half-log dilutions using a maximum concentration of three or ten micromolar. A series of control wells for each cell type received only buffer and compound solvent DMSO. Twenty-four hours after the addition of compound, reporter activity for luciferase was assayed, for example, by addition of the BrightGlo luminescence reagent (Promega) and the Victor3 plate reader (Perkin Elmer). Readings were normalized to DMSO only treated cells, and any activities above DMSO were considered activation. Compounds were considered activators if reporter activities were 2× fold or greater than DMSO. EC50 is the concentration at half maximal activation.
row,Structure (SMILES),EC50
1,"O=C(CCC(=O)c1ccccc1C(F)(F)F)c1ccc2occc2c1 [Compound 275, 1-(Benzofuran-5-yl)-4-(2-(trifluoromethyl)phenyl)butane-1,4-dione]",9 nM
2,"O=C(CCC(=O)c1ccccc1F)c1ccc2occc2c1 [Compound 278, 1-(Benzofuran-5-yl)-4-(2-fluorophenyl)butane-1,4-dione]",18 nM
3,"COc1ccccc1C(=O)CCC(=O)c1ccc2occc2c1 [Compound 281, 1-(Benzofuran-5-yl)-4-(2-methoxyphenyl)butane-1,4-dione]",61 nM
4,"O=C(CCC(=O)c1ccc2occc2c1)c1ccccc1 [Compound 287, 1-(Benzofuran-5-yl)-4-phenylbutane-1,4-dione]",87 nM
5,"O=C(CCC(=O)c1ccccc1C(F)(F)F)c1ccc2ocnc2c1 [Compound 288, 1-(Benzo[d]oxazol-5-yl)-4-(2-(trifluoromethyl)phenyl)butane-1,4-dione]",> 10000 nM
6,"O=C(CCC(=O)c1ccccc1F)c1ccc2ocnc2c1 [Compound 291, 1-(Benzo[d]oxazol-5-yl)-4-(2-fluorophenyl)butane-1,4-dione]",125 nM
7,"O=C(CCC(=O)c1ccc2ocnc2c1)c1cccc(F)c1 [Compound 292, 1-(Benzo[d]oxazol-5-yl)-4-(3-fluorophenyl)butane-1,4-dione]",595 nM
8,"COc1ccccc1C(=O)CCC(=O)c1ccc2ocnc2c1 [Compound 294, 1-(Benzo[d]oxazol-5-yl)-4-(2-methoxyphenyl)butane-1,4-dione]",1720 nM
9,"O=C(CCC(=O)c1ccc2ocnc2c1)c1ccccc1 [Compound 300, 1-(Benzo[d]oxazol-5-yl)-4-phenylbutane-1,4-dione]",18 nM
10,"O=C(CCC(=O)c1ccccc1C(F)(F)F)c1ccc2sccc2c1 [Compound 301, 1-(Benzo[b]thiophen-5-yl)-4-(2-(trifluoromethyl)phenyl)butane-1,4-dione]",39 nM
11,"COc1ccccc1C(=O)CCC(=O)c1ccc2sccc2c1 [Compound 307, 1-(Benzo[b]thiophen-5-yl)-4-(2-methoxyphenyl)butane-1,4-dione]",55 nM
12,"O=C(CCC(=O)c1ccccn1)c1ccc2sccc2c1 [Compound 310, 1-(Benzo[b]thiophen-5-yl)-4-(pyridin-2-yl)butane-1,4-dione]",68 nM
13,"O=C(CCC(=O)c1ccc2sccc2c1)c1ccccc1 [Compound 313, 1-(Benzo[b]thiophen-5-yl)-4-phenylbutane-1,4-dione]",44 nM
14,"O=C(CCC(=O)c1c[nH]c2ccccc12)c1ccccc1C(F)(F)F [Compound 314, 1-(1H-Indol-3-yl)-4-(2-(trifluoromethyl)phenyl)butane-1,4-dione]",16 nM
15,"O=C(CCC(=O)c1c[nH]c2ccccc12)c1ccc(C(F)(F)F)cc1 [Compound 316, 1-(1H-Indol-3-yl)-4-(4-(trifluoromethyl)phenyl)butane-1,4-dione]",> 10000 nM
16,"O=C(CCC(=O)c1c[nH]c2ccccc12)c1ccccc1F [Compound 317, 1-(2-Fluorophenyl)-4-(1H-indol-3-yl)butane-1,4-dione]",> 10000 nM
17,"COc1ccccc1C(=O)CCC(=O)c1c[nH]c2ccccc12 [Compound 319, 1-(1H-Indol-3-yl)-4-(2-methoxyphenyl)butane-1,4-dione]",279 nM
18,"COc1cccc(C(=O)CCC(=O)c2c[nH]c3ccccc23)c1 [Compound 320, 1-(1H-Indol-3-yl)-4-(3-methoxyphenyl)butane-1,4-dione]",> 10000 nM
19,"O=C(CCC(=O)c1c[nH]c2ccccc12)c1ccccc1 [Compound 325, 1-(1H-Indol-3-yl)-4-phenylbutane-1,4-dione]",63 nM
20,"O=C(CCC(=O)c1n[nH]c2ccccc12)c1ccccc1C(F)(F)F [Compound 326, 1-(1H-Indazol-3-yl)-4-(2-(trifluoromethyl)phenyl)butane-1,4-dione]",117 nM
21,"O=C(CCC(=O)c1n[nH]c2ccccc12)c1ccccc1F [Compound 329, 1-(2-Fluorophenyl)-4-(1H-indazol-3-yl)butane-1,4-dione]",89 nM
22,"COc1ccccc1C(=O)CCC(=O)c1n[nH]c2ccccc12 [Compound 332, 1-(1H-Indazol-3-yl)-4-(2-methoxyphenyl)butane-1,4-dione]",680 nM
23,"COc1ccc(C(=O)CCC(=O)c2n[nH]c3ccccc23)cc1 [Compound 334, 1-(1H-Indazol-3-yl)-4-(4-methoxyphenyl)butane-1,4-dione]",> 10000 nM
24,"O=C(CCC(=O)c1n[nH]c2ccccc12)c1ccccc1 [Compound 338, 1-(1H-Indazol-3-yl)-4-phenylbutane-1,4-dione]",64 nM

row,Structure (SMILES),EC50
1,"O=C(CCC(=O)c1ncccn1)c1ccc2c(c1)OCCO2 [Compound 339, 1-(2,3-Dihydrobenzo[b][1,4]dioxin-6-yl)-4-(pyrimidin-2-yl)butane-1,4-dione]",9 nM
2,"O=C(CCC(=O)c1ccncn1)c1ccc2c(c1)OCCO2 [Compound 340, 1-(2,3-Dihydrobenzo[b][1,4]dioxin-6-yl)-4-(pyrimidin-4-yl)butane-1,4-dione]",209 nM
3,"O=C(CCC(=O)c1cccnn1)c1ccc2c(c1)OCCO2 [Compound 341, 1-(2,3-Dihydrobenzo[b][1,4]dioxin-6-yl)-4-(pyridazin-3-yl)butane-1,4-dione]",95 nM
4,"Cc1ccccc1C(=O)CCC(=O)c1ccc2c(c1)OCCO2 [Compound 342, 1-(2,3-Dihydrobenzo[b][1,4]dioxin-6-yl)-4-(o-tolyl)butane-1,4-dione]",9 nM
5,"Cc1cccc(C(=O)CCC(=O)c2ccc3c(c2)OCCO3)c1 [Compound 343, 1-(2,3-Dihydrobenzo[b][1,4]dioxin-6-yl)-4-(m-tolyl)butane-1,4-dione]",351 nM
6,"Cc1ccc(C(=O)CCC(=O)c2ccc3c(c2)OCCO3)cc1 [Compound 344, 1-(2,3-Dihydrobenzo[b][1,4]dioxin-6-yl)-4-(p-tolyl)butane-1,4-dione]",307 nM
7,"O=C(CCC(=O)c1ccc2c(c1)OCCO2)c1cncnc1 [Compound 345, 1-(2,3-Dihydrobenzo[b][1,4]dioxin-6-yl)-4-(pyrimidin-5-yl)butane-1,4-dione]",> 10000 nM
8,"O=C(CCC(=O)c1ccco1)c1ccc2c(c1)OCCO2 [Compound 346, 1-(2,3-Dihydrobenzo[b][1,4]dioxin-6-yl)-4-(furan-2-yl)butane-1,4-dione]",24 nM
9,"Cc1ccccc1C(=O)CCC(=O)c1ccc2c(c1)CCCO2 [Compound 358, 1-(Chroman-6-yl)-4-(o-tolyl)butane-1,4-dione]",14 nM
10,"O=C(CCC(=O)c1ncccn1)c1ccc2c(c1)CCCO2 [Compound 362, 1-(Chroman-6-yl)-4-(pyrimidin-2-yl)butane-1,4-dione]",188 nM
11,"O=C(CCC(=O)c1cccs1)c1ccc2c(c1)CCCO2 [Compound 364, 1-(Chroman-6-yl)-4-(thiophen-2-yl)butane-1,4-dione]",13 nM
12,"O=C(CCC(=O)c1ccco1)c1ccc2c(c1)CCCO2 [Compound 365, 1-(Chroman-6-yl)-4-(furan-2-yl)butane-1,4-dione]",33 nM
13,"Cc1ccccc1C(=O)CCC(=O)c1ccc2c(c1)OCO2 [Compound 368, 1-(Benzo[d][1,3]dioxol-5-yl)-4-(o-tolyl)butane-1,4-dione]",16 nM
14,"O=C(CCC(=O)c1ncccn1)c1ccc2c(c1)OCO2 [Compound 372, 1-(Benzo[d][1,3]dioxol-5-yl)-4-(pyrimidin-2-yl)butane-1,4-dione]",97 nM
15,"O=C(CCC(=O)c1cccs1)c1ccc2c(c1)OCO2 [Compound 374, 1-(Benzo[d][1,3]dioxol-5-yl)-4-(thiophen-2-yl)butane-1,4-dione]",13 nM
16,"O=C(CCC(=O)c1ccco1)c1ccc2c(c1)OCO2 [Compound 375, 1-(Benzo[d][1,3]dioxol-5-yl)-4-(furan-2-yl)butane-1,4-dione]",71 nM
17,"Cc1cccc(C(=O)CCC(=O)c2ccc3c(c2)OC(F)(F)O3)c1 [Compound 379, 1-(2,2-Difluorobenzo[d][1,3]dioxol-5-yl)-4-(m-tolyl)butane-1,4-dione]",> 10000 nM
18,"O=C(CCC(=O)c1ccco1)c1ccc2c(c1)OC(F)(F)O2 [Compound 385, 1-(2,2-Difluorobenzo[d][1,3]dioxol-5-yl)-4-(furan-2-yl)butane-1,4-dione]",165 nM
19,"COc1ccc(C(=O)CCC(=O)c2cccc(C)c2)cc1OC [Compound 425, 1-(3,4-Dimethoxyphenyl)-4-(m-tolyl)butane-1,4-dione]",5950 nM
20,"COc1ccc(C(=O)CCC(=O)c2ccc(C)cc2)cc1OC [Compound 426, 1-(3,4-Dimethoxyphenyl)-4-(p-tolyl)butane-1,4-dione]",8800 nM
21,"COc1ccc(C(=O)CCC(=O)c2cncnc2)cc1OC [Compound 430, 1-(3,4-Dimethoxyphenyl)-4-(pyrimidin-5-yl)butane-1,4-dione]",> 10000 nM
22,"COc1ccc(C(=O)CCC(=O)c2ncccn2)cc1OC [Compound 431, 1-(3,4-Dimethoxyphenyl)-4-(pyrimidin-2-yl)butane-1,4-dione]",> 10000 nM
23,"COc1ccc(C(=O)CCC(=O)c2ccncn2)cc1OC [Compound 432, 1-(3,4-Dimethoxyphenyl)-4-(pyrimidin-4-yl)butane-1,4-dione]",4800 nM
